Data reported in patent publication US20040076989A1, “Synaptic transmission assay” (priority 2000, published 2004).
“Also recorded” adds a separate entry of the source.

How the values were obtained:
zif268 mRNA expression = assay: zif268 mRNA assay (Northern blot) in cultured dissociated hippocampal neurons; assay type: cell-based; settings: added to induction medium
Protocol: The peak in zif268 expression after 30 min established the optimal delay for mRNA-based assays. Similar optimisation of protein-based immunohistochemical assays indicates an optimum 2 h post-exposure delay.
Zif268 mRNA assays were carried out as in Example 2, with cells exposed to ACSF control, to induction medium, or to induction medium with the addition of […] (an inhibitor of MAPK kinase) (FIG. 15) or with the addition of a mixture of the calcium channel blocker cadmium and the glutamate receptor antagonists AP5 and CNQX (FIG. 16).

[1] = test system: neuronal zif268 expression; assay: zif268 immunocytochemical assay (zif268/NeuN double-labelled neurons) in dissociated hippocampal neuron culture; assay type: cell-based, Sprague-Dawley rat; settings: added to induction medium, 0.2 μM each, 10 min exposure; listed as Carbachol
Protocol: Hippocampal neurons were prepared from late embryonic or 1st postnatal day Sprague-Dawley rates, and grown in dissociated cell culture in microtitre plates. After 7-21 days in vitro, serum-containing medium was replaced with serum-free medium for 24 h. This medium was then replaced with ACSF or with induction medium for 10 minutes; these solutions were then replaced with serum-free medium. After 1 hour, cells were fixed by replacement of serum-free medium with phosphate-buffered saline containing 4% paraformaldehyde. Immunolabelling was then carried out with rabbit antiserum against zif268 and mouse antibodies against the neuron-specific antigen NeuN. After washing, bound antibodies were visualised by incubation with Alexa488-labelled anti-rabbit IgG and Cy3-labelled anti-mouse IgG (FIG. 12 top).
An immunocytochemical assay was carried out as in Example 3, with cells exposed to ACSF, to induction medium, to induction medium with the addition of carbachol and isoproterenol (0.2 μM each) or to induction medium with the addition of carbachol only (0.2 μM).

SMILES | effect on chemically-induced zif268 mRNA expression (zif268 mRNA expression) | effect on chemically induced increase in neuronal zif268 immunoreactivity [1]
COc1cccc(-c2cc(=O)c3ccccc3o2)c1N [PD98959] | significantly reduced; also recorded: inhibits | –
C[N+](C)(C)CCOC(N)=O [carbachol] | – | no effect
